Laboratory results reported in patent US20260262643A1, “HERBICIDAL BENZOXAZINES” (FMC CORPORATION, priority 2022, published 2026).

Assays:
blackgrass [1] = assay: Test A preemergence; type: in vivo, Alopecurus myosuroides
Summary of the method: (§1)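 Greenhouse pot test, 10 days. Compound (non-phytotoxic solvent, surfactant) sprayed on soil at seeding or on seedlings at one- to two-leaf stage. Visual injury rated 0–100 against untreated plants.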

pigweed, palmer [2] = assay: Test A postemergence; type: in vivo, Amaranthus palmeri; settings: postemergence, 10 days; for Plant response rating, Pigweed, Palmer: 500 g ai/ha, visual injury, 0 to 100 scale (0 no effect, 100 complete control)
Summary of the method: as §1

corn [3] = assay: Test A postemergence; type: in vivo, Zea mays; settings: postemergence, 10 days; for Plant response rating, Corn: visual injury, 0 to 100 scale (0 no effect, 100 complete control)
Summary of the method: as §1

barnyardgrass = assay: Test B flooded paddy test; type: in vivo, Echinochloa crus-galli; settings: 250 g ai/ha, Flood, 13 days, 0 to 100 scale (0 no effect, 100 complete control)
Summary of the method: (§2)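 Visual scores from 0 (no effect) to 100 (complete kill) were assigned 13 days after treatment by comparison with controls. Seedlings had been treated at two leaves by adding compound to floodwater standing 3 cm deep, kept at that level in the greenhouse.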

goosegrass [4] = assay: Test A preemergence; type: in vivo, Eleusine indica
Summary of the method: as §1

kochia [5] = assay: Test A postemergence; type: in vivo, Bassia scoparia; settings: postemergence, 10 days; for Plant response rating, Kochia: visual injury, 0 to 100 scale (0 no effect, 100 complete control)
Summary of the method: as §1

ragweed [6] = assay: Test A postemergence; type: in vivo, Ambrosia artemisiifolia; settings: postemergence, 10 days; for Plant response rating, Ragweed: 500 g ai/ha, visual injury, 0 to 100 scale (0 no effect, 100 complete control)
Summary of the method: as §1

wheat [7] = assay: Test A preemergence; type: in vivo, Triticum aestivum
Summary of the method: as §1

soybean [8] = assay: Test A preemergence; type: in vivo, Glycine max
Summary of the method: as §1

ryegrass, Italian [9] = assay: Test A postemergence; type: in vivo, Lolium multiflorum; settings: postemergence, 10 days; for Plant response rating, Ryegrass, Italian: 500 g ai/ha, visual injury, 0 to 100 scale (0 no effect, 100 complete control)
Summary of the method: as §1

pigweed, palmer [10] = assay: Test A preemergence; type: in vivo, Amaranthus palmeri
Summary of the method: as §1

corn [11] = assay: Test A preemergence; type: in vivo, Zea mays
Summary of the method: as §1

horseweed = assay: Test A postemergence; type: in vivo, Erigeron canadensis; settings: postemergence, 10 days; for Plant response rating, Horseweed: visual injury, 0 to 100 scale (0 no effect, 100 complete control)
Summary of the method: as §1

galium = assay: Test A postemergence; type: in vivo, Galium aparine; settings: postemergence, 10 days; for Plant response rating, Galium: visual injury, 0 to 100 scale (0 no effect, 100 complete control)
Summary of the method: as §1

sedge, umbrella = assay: Test B flooded paddy test; type: in vivo, Cyperus difformis; settings: 250 g ai/ha, Flood, 13 days, 0 to 100 scale (0 no effect, 100 complete control)
Summary of the method: as §2

rice = assay: Test B flooded paddy test; type: in vivo, Oryza sativa; settings: 250 g ai/ha, Flood, 13 days, 0 to 100 scale (0 no effect, 100 complete control)
Summary of the method: as §2

kochia [12] = assay: Test A preemergence; type: in vivo, Bassia scoparia
Summary of the method: as §1

oat, wild [13] = assay: Test A preemergence; type: in vivo, Avena fatua
Summary of the method: as §1

wheat [14] = assay: Test A postemergence; type: in vivo, Triticum aestivum; settings: postemergence, 10 days; for Plant response rating, Wheat: 500 g ai/ha, visual injury, 0 to 100 scale (0 no effect, 100 complete control)
Summary of the method: as §1

ragweed [15] = assay: Test A preemergence; type: in vivo, Ambrosia artemisiifolia
Summary of the method: as §1

blackgrass [16] = assay: Test A postemergence; type: in vivo, Alopecurus myosuroides
Summary of the method: as §1

goosegrass [17] = assay: Test A postemergence; type: in vivo, Eleusine indica; settings: postemergence, 10 days; for Plant response rating, Goosegrass: visual injury, 0 to 100 scale (0 no effect, 100 complete control)
Summary of the method: as §1

ryegrass, Italian [18] = assay: Test A preemergence; type: in vivo, Lolium multiflorum
Summary of the method: as §1

soybean [19] = assay: Test A postemergence; type: in vivo, Glycine max; settings: postemergence, 10 days; for Plant response rating, Soybean: 500 g ai/ha, visual injury, 0 to 100 scale (0 no effect, 100 complete control)
Summary of the method: as §1

foxtail, giant [20] = assay: Test A preemergence; type: in vivo, Setaria faberi
Summary of the method: as §1

foxtail, giant [21] = assay: Test A postemergence; type: in vivo, Setaria faberi; settings: postemergence, 10 days; for Plant response rating, Foxtail, Giant: visual injury, 0 to 100 scale (0 no effect, 100 complete control)
Summary of the method: as §1

ducksalad = assay: Test B flooded paddy test; type: in vivo, Heteranthera limosa; settings: 250 g ai/ha, Flood, 13 days, 0 to 100 scale (0 no effect, 100 complete control)
Summary of the method: as §2

oat, wild [22] = assay: Test A postemergence; type: in vivo, Avena fatua; settings: postemergence, 10 days; for Plant response rating, Oat, Wild: 500 g ai/ha, visual injury, 0 to 100 scale (0 no effect, 100 complete control)
Summary of the method: as §1

[23] = 125 g ai/ha, visual injury after 10 days, 0 to 100 scale, 0 is no effect, 100 is complete control
[24] = 500 g ai/ha, 0 to 100 scale (0 no effect, 100 complete control), 10 days
[25] = 125 g ai/ha, 0 to 100 scale, 0 no effect, 100 complete control

C#CCOc1ccc(-n2cnc(C(C)C)n2)cc1C(=O)N1C[C@H](C)Oc2c(Cl)cccc21 [Compound 107]
Plant response rating, Blackgrass (blackgrass [1]; [23]): 20 | Plant response rating, Blackgrass (blackgrass [1]; [24]): 40 | Pigweed, Palmer plant response rating (pigweed, palmer [2]; [25]): 90 | Plant response rating, Pigweed, Palmer (pigweed, palmer [2]): 100 | Corn plant response rating (corn [3]; [25]): 70 | Plant response rating, Corn (corn [3]; 500 g ai/ha): 80 | Plant response rating, Barnyardgrass (barnyardgrass): 70 | Plant response rating, Goosegrass (goosegrass [4]; [23]): 100 | Plant response rating, Goosegrass (goosegrass [4]; [24]): 100 | Kochia plant response rating (kochia [5]; [25]): 80 | Plant response rating, Kochia (kochia [5]; 500 g ai/ha): 90 | Ragweed plant response rating (ragweed [6]; [25]): 50 | Plant response rating, Ragweed (ragweed [6]): 70 | Plant response rating, Wheat (wheat [7]; [23]): 0 | Plant response rating, Wheat (wheat [7]; [24]): 40 | Plant response rating, Soybean (soybean [8]; [23]): 50 | Plant response rating, Soybean (soybean [8]; [24]): 70 | Ryegrass, Italian plant response rating (ryegrass, Italian [9]; [25]): 20 | Plant response rating, Ryegrass, Italian (ryegrass, Italian [9]): 60 | Plant response rating, Pigweed, Palmer (pigweed, palmer [10]; [23]): 100 | Plant response rating, Pigweed, Palmer (pigweed, palmer [10]; [24]): 100 | Plant response rating, Corn (corn [11]; [23]): 10 | Plant response rating, Corn (corn [11]; [24]): 50 | Horseweed plant response rating (horseweed; [25]): 20 | Plant response rating, Horseweed (horseweed; 500 g ai/ha): 30 | Galium plant response rating (galium; [25]): 100 | Plant response rating, Galium (galium; 500 g ai/ha): 100 | Plant response rating, Sedge, Umbrella (sedge, umbrella): 90 | Plant response rating, Rice (rice): 20 | Plant response rating, Kochia (kochia [12]; [23]): 20 | Plant response rating, Kochia (kochia [12]; [24]): 80 | Plant response rating, Oat, Wild (oat, wild [13]; [23]): 60 | Plant response rating, Oat, Wild (oat, wild [13]; [24]): 70 | Wheat plant response rating (wheat [14]; [25]): 30 | Plant response rating, Wheat (wheat [14]): 30 | Plant response rating, Ragweed (ragweed [15]; [23]): 30 | Blackgrass plant response rating (blackgrass [16]; 125 g ai/ha, postemergence, 10 days, 0 to 100 scale, 0 no effect, 100 complete control): 60 | Plant response rating, Blackgrass (blackgrass [16]; 500 g ai/ha, postemergence, 10 days, visual injury, 0 to 100 scale (0 no effect, 100 complete control)): 80 | Goosegrass plant response rating (goosegrass [17]; [25]): 70 | Plant response rating, Goosegrass (goosegrass [17]; 500 g ai/ha): 100 | Plant response rating, Ryegrass, Italian (ryegrass, Italian [18]; [23]): 80 | Plant response rating, Ryegrass, Italian (ryegrass, Italian [18]; [24]): 100 | Soybean plant response rating (soybean [19]; [25]): 100 | Plant response rating, Soybean (soybean [19]): 100 | Plant response rating, Foxtail, Giant (foxtail, giant [20]; [23]): 100 | Plant response rating, Foxtail, Giant (foxtail, giant [20]; [24]): 100 | Foxtail, Giant plant response rating (foxtail, giant [21]; [25]): 90 | Plant response rating, Foxtail, Giant (foxtail, giant [21]; 500 g ai/ha): 100 | Plant response rating, Ducksalad (ducksalad): 25 | Oat, Wild plant response rating (oat, wild [22]; [25]): 30 | Plant response rating, Oat, Wild (oat, wild [22]): 70

CCCc1ncn(-c2cccc(C(=O)N3C[C@H](C)Oc4c(C)cccc43)c2)n1 [Compound 72]
Plant response rating, Blackgrass (blackgrass [1]; [23]): 40 | Plant response rating, Blackgrass (blackgrass [1]; [24]): 70 | Plant response rating, Pigweed, Palmer (pigweed, palmer [2]): 70 | Plant response rating, Corn (corn [3]; 125 g ai/ha): 30 | Plant response rating, Corn (corn [3]; 500 g ai/ha): 90 | Plant response rating, Barnyardgrass (barnyardgrass): 15 | Plant response rating, Goosegrass (goosegrass [4]; [23]): 90 | Plant response rating, Goosegrass (goosegrass [4]; [24]): 100 | Plant response rating, Kochia (kochia [5]; 125 g ai/ha): 70 | Plant response rating, Kochia (kochia [5]; 500 g ai/ha): 90 | Plant response rating, Ragweed (ragweed [6]): 50 | Plant response rating, Wheat (wheat [7]; [23]): 0 | Plant response rating, Wheat (wheat [7]; [24]): 30 | Plant response rating, Soybean (soybean [8]; [23]): 30 | Plant response rating, Soybean (soybean [8]; [24]): 60 | Plant response rating, Ryegrass, Italian (ryegrass, Italian [9]): 70 | Plant response rating, Pigweed, Palmer (pigweed, palmer [10]; [23]): 70 | Plant response rating, Pigweed, Palmer (pigweed, palmer [10]; [24]): 100 | Plant response rating, Corn (corn [11]; [23]): 30 | Plant response rating, Corn (corn [11]; [24]): 50 | Plant response rating, Horseweed (horseweed; 125 g ai/ha): 20 | Plant response rating, Horseweed (horseweed; 500 g ai/ha): 50 | Plant response rating, Galium (galium; 125 g ai/ha): 70 | Plant response rating, Galium (galium; 500 g ai/ha): 100 | Plant response rating, Sedge, Umbrella (sedge, umbrella): 15 | Plant response rating, Rice (rice): 0 | Plant response rating, Kochia (kochia [12]; [23]): 30 | Plant response rating, Kochia (kochia [12]; [24]): 80 | Plant response rating, Oat, Wild (oat, wild [13]; [23]): 10 | Plant response rating, Oat, Wild (oat, wild [13]; [24]): 90 | Plant response rating, Wheat (wheat [14]): 30 | Plant response rating, Ragweed (ragweed [15]; [23]): 0 | Plant response rating, Ragweed (ragweed [15]; [24]): 0 | Plant response rating, Blackgrass (blackgrass [16]; 125 g ai/ha, postemergence, 10 days, visual injury, 0 to 100 scale (0 no effect, 100 complete control)): 0 | Plant response rating, Blackgrass (blackgrass [16]; 500 g ai/ha, Postemergence, 0 to 100 scale): 80 | Plant response rating, Goosegrass (goosegrass [17]; 125 g ai/ha): 50 | Plant response rating, Goosegrass (goosegrass [17]; 500 g ai/ha): 90 | Plant response rating, Ryegrass, Italian (ryegrass, Italian [18]; [23]): 100 | Plant response rating, Ryegrass, Italian (ryegrass, Italian [18]; [24]): 100 | Plant response rating, Soybean (soybean [19]): 100 | Plant response rating, Foxtail, Giant (foxtail, giant [20]; [23]): 100 | Plant response rating, Foxtail, Giant (foxtail, giant [20]; [24]): 100 | Plant response rating, Foxtail, Giant (foxtail, giant [21]; 125 g ai/ha): 10 | Plant response rating, Foxtail, Giant (foxtail, giant [21]; 500 g ai/ha): 50 | Plant response rating, Ducksalad (ducksalad): 55 | Plant response rating, Oat, Wild (oat, wild [22]): 50
